According to patent US10100050B2 (CHIESI FARMACEUTICI S.P.A., priority 2015, dated 2018):

Legend:
[1] = molecular target: T1, p38alpha (Homo sapiens, UniProt Q16539); assay: P38alpha enzyme inhibition assay (Alphascreen kinase activity assay); assay type: biochemical; settings: IC50 classes; 2 hours preincubation at 25° C., 250 μM ATP; read-out: p38α inhibition
T1 construct: purchased Invitrogen PV3304
Procedure, shortened: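 p38alpha with 0.3 μg/ml ATF-2 fusion protein in HEPES pH 7.5 buffer (10 mM MgCl2, 2 mM DTT, 1% DMSO); compounds preincubated 2 h at 25° C, then 250 μM ATP added for 1 h at 25° C. Phospho-ATF2 detected by AlphaScreen luminescence with anti-phospho-ATF2 antibody; IC50 from concentration-response curves.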

[2] = system: Peripheral Blood Mononuclear Cells (PBMCs); assay: LPS-stimulated PBMC TNFα release assay; assay type: cell-based; settings: IC50 classes; human PBMC, LPS 10 ng/ml, 18 h; read-out: LPS-stimulated PBMC TNFα release inhibition
Procedure, shortened: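 Human PBMCs from healthy donors, adhered 3 h in serum-free RPMI, received compound for 1 h in 1% FBS medium before 10 ng/ml LPS for 18 h. Supernatant TNFα was measured by MSD; IC50 from percentage inhibition of control release, at least three separate experiments.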

[3] = system: BEAS-2B cells; assay: TNFα-stimulated BEAS-2B IL-8 release assay; assay type: cell-based; settings: Homo sapiens, IC50 classes, TNF-α 10 ng/ml, 18 h, read-out: TNFα-stimulated BEAS-2B IL-8 release inhibition
Procedure, shortened: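 BEAS-2B cells at 80-90% confluence were pre-incubated 1 h with p38 inhibitors, then stimulated 18 h at 37 °C with TNF-α (10 ng/ml). Supernatant IL-8 was measured by ELISA. IC50 was taken from sigmoidal variable-slope fits of % inhibition of control release.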

T1 sequence (Q16539 whole entry): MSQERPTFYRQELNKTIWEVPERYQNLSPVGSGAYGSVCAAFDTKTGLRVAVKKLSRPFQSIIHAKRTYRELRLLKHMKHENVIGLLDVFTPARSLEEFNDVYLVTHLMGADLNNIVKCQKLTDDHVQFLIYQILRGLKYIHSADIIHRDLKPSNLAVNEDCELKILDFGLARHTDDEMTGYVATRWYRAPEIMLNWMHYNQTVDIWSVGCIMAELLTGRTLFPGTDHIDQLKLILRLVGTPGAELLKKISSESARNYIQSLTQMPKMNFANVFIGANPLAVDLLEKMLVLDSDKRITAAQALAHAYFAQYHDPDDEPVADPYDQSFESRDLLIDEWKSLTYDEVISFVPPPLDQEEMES

CN1CCC[C@H]1c1nnc2ccc(O[C@@H]3CC[C@H](NC(=O)Nc4cc(NS(=O)(=O)C5CC5)cc(C(C)(C)C)c4)c4ccccc43)cn12 [Example 36, Cyclopropanesulfonic acid [3-tert-butyl-5-(3-{(1S,4R)-4-[3-((S)-1-methyl-pyrrolidin-2-yl)-[1,2,4]triazolo[4,3-a]pyridin-6-yloxy]-1,2,3,4-tetrahydro-naphthalen-1-yl}-ureido)-phenyl]-amide]
IC50 [1]: < 1 nM | IC50 [2]: 1 to 5 nM | IC50 [3]: 0.3 to 1 nM

CN1CCC[C@@]1(C)c1nnc2ccc(O[C@@H]3CC[C@H](NC(=O)Nc4cc(NS(=O)(=O)C5CC5)cc(C(C)(C)C)c4)c4ccccc43)cn12 [Example 37, Cyclopropanesulfonic acid [3-tert-butyl-5-(3-{(1S,4R)-4-[3-((S)-1,2-dimethyl-pyrrolidin-2-yl)-[1,2,4]triazolo[4,3-a]pyridin-6-yloxy]-1,2,3,4-tetrahydro-naphthalen-1-yl}-ureido)-phenyl]-amide]
IC50 [1]: 1 to 10 nM | IC50 [2]: < 1 nM | IC50 [3]: < 0.3 nM

CNS(=O)(=O)c1cc(NC(=O)N[C@H]2CC[C@@H](Oc3ccc4nnc([C@@H]5CCCN5C)n4c3)c3ccccc32)cc(C(C)(C)C)c1 [Example 38, 3-tert-Butyl-N-methyl-5-(3-{(1S,4R)-4-[3-((S)-1-methyl-pyrrolidin-2-yl)-[1,2,4]triazolo[4,3-a]pyridin-6-yloxy]-1,2,3,4-tetrahydro-naphthalen-1-yl}-ureido)-benzenesulfonamide]
IC50 [1]: < 1 nM | IC50 [2]: 1 to 5 nM | IC50 [3]: 0.3 to 1 nM

CNS(=O)(=O)c1cc(NC(=O)N[C@H]2CC[C@@H](Oc3ccc4nnc([C@]5(C)CCCN5C)n4c3)c3ccccc32)cc(C(C)(C)C)c1 [Example 39, 3-tert-Butyl-5-(3-{(1S,4R)-4-[3-((S)-1,2-dimethyl-pyrrolidin-2-yl)-[1,2,4]triazolo[4,3-a]pyridin-6-yloxy]-1,2,3,4-tetrahydro-naphthalen-1-yl}-ureido)-N-methyl-benzenesulfonamide]
IC50 [1]: < 1 nM | IC50 [2]: < 1 nM | IC50 [3]: < 0.3 nM

CN1CCC[C@@]1(C)c1nnc2ccc(O[C@@H]3CC[C@H](NC(=O)Nc4cc(CS(C)(=O)=O)cc(C(C)(C)C)c4)c4ccccc43)cn12 [Example 42, 1-(3-tert-Butyl-5-methanesulfonylmethyl-phenyl)-3-{(1S,4R)-4-[3-((S)-1,2-dimethyl-pyrrolidin-2-yl)-[1,2,4]triazolo[4,3-a]pyridin-6-yloxy]-1,2,3,4-tetrahydro-naphthalen-1-yl}-urea]
IC50 [1]: < 1 nM | IC50 [2]: < 1 nM | IC50 [3]: < 0.3 nM

CC(=O)OCc1cc(NC(=O)N[C@H]2CC[C@@H](Oc3ccc4nnc([C@@H]5CCCN5C)n4c3)c3ccccc32)cc(C(C)(C)C)c1 [Example 43, Acetic acid 3-tert-butyl-5-(3-{(1S,4R)-4-[3-((S)-1-methyl-pyrrolidin-2-yl)-[1,2,4]triazolo[4,3-a]pyridin-6-yloxy]-1,2,3,4-tetrahydro-naphthalen-1-yl}-ureido)-benzyl ester]
IC50 [1]: < 1 nM | IC50 [2]: 1 to 5 nM | IC50 [3]: < 0.3 nM

CC(=O)OCc1cc(NC(=O)N[C@H]2CC[C@@H](Oc3ccc4nnc([C@]5(C)CCCN5C)n4c3)c3ccccc32)cc(C(C)(C)C)c1 [Example 44, Acetic acid 3-tert-butyl-5-(3-{(1S,4R)-4-[3-((S)-1,2-dimethyl-pyrrolidin-2-yl)-[1,2,4]triazolo[4,3-a]pyridin-6-yloxy]-1,2,3,4-tetrahydro-naphthalen-1-yl}-ureido)-benzyl ester]
IC50 [1]: < 1 nM | IC50 [2]: < 1 nM | IC50 [3]: < 0.3 nM

CN1CCC[C@@]1(C)c1nnc2ccc(O[C@@H]3CC[C@H](NC(=O)Nc4cc(CNS(C)(=O)=O)cc(C(C)(C)C)c4)c4ccccc43)cn12 [Example 45, N-[3-tert-Butyl-5-(3-{(1S,4R)-4-[3-((S)-1,2-dimethyl-pyrrolidin-2-yl)-[1,2,4]triazolo[4,3-a]pyridin-6-yloxy]-1,2,3,4-tetrahydro-naphthalen-1-yl}-ureido)-benzyl]-methanesulfonamide]
IC50 [1]: < 1 nM | IC50 [2]: < 1 nM | IC50 [3]: < 0.3 nM

COC(=O)Nc1cc(NC(=O)N[C@H]2CC[C@@H](Oc3ccc4nnc([C@]5(C)CCCN5C)n4c3)c3ccccc32)cc(C(C)(C)C)c1 [Example 46, [3-tert-Butyl-5-(3-{(1S,4R)-4-[3-((S)-1,2-dimethyl-pyrrolidin-2-yl)-[1,2,4]triazolo[4,3-a]pyridin-6-yloxy]-1,2,3,4-tetrahydro-naphthalen-1-yl}-ureido)-phenyl]-carbamic acid methyl ester]
IC50 [1]: 1 to 10 nM | IC50 [2]: < 1 nM | IC50 [3]: < 0.3 nM

CN1CCC[C@@]1(C)c1nnc2ccc(O[C@@H]3CC[C@H](NC(=O)Nc4cc(C(C)(C)C)cc(S(C)(=O)=O)c4)c4ccccc43)cn12 [Example 47, 1-(3-tert-Butyl-5-methanesulfonyl-phenyl)-3-{(1S,4R)-4-[3-((S)-1,2-dimethyl-pyrrolidin-2-yl)-[1,2,4]triazolo[4,3-a]pyridin-6-yloxy]-1,2,3,4-tetrahydro-naphthalen-1-yl}-urea]
IC50 [1]: < 1 nM | IC50 [2]: < 1 nM | IC50 [3]: < 0.3 nM

CN1CCC[C@@]1(C)c1nnc2ccc(O[C@@H]3CC[C@H](NC(=O)Nc4cc(CO)cc(C(C)(C)C)c4)c4ccccc43)cn12 [Example 49, 1-(3-tert-Butyl-5-hydroxymethyl-phenyl)-3-{(1S,4R)-4-[3-((S)-1,2-dimethyl-pyrrolidin-2-yl)-[1,2,4]triazolo[4,3-a]pyridin-6-yloxy]-1,2,3,4-tetrahydro-naphthalen-1-yl}-urea]
IC50 [1]: < 1 nM | IC50 [2]: < 1 nM | IC50 [3]: < 0.3 nM

CN1CCC[C@@]1(C)c1nnc2ccc(O[C@@H]3CC[C@H](NC(=O)Nc4cc(C(=O)NCCO)cc(C(C)(C)C)c4)c4ccccc43)cn12 [Example 51, 3-tert-Butyl-5-(3-{(1S,4R)-4-[3-((S)-1,2-dimethyl-pyrrolidin-2-yl)-[1,2,4]triazolo[4,3-a]pyridin-6-yloxy]-1,2,3,4-tetrahydro-naphthalen-1-yl}-ureido)-N-(2-hydroxy-ethyl)-benzamide]
IC50 [1]: < 1 nM | IC50 [2]: < 1 nM | IC50 [3]: 0.3 to 1 nM

CN1CCC[C@@]1(C)c1nnc2ccc(O[C@@H]3CC[C@H](NC(=O)Nc4cc(C(N)=O)cc(C(C)(C)C)c4)c4ccccc43)cn12 [Example 53, 3-tert-Butyl-5-(3-{(1S,4R)-4-[3-((S)-1,2-dimethyl-pyrmlidin-2-yl)-[1,2,4]triazolo[4,3-a]pyridin-6-yloxy]-1,2,3,4-tetrahydro-naphthalen-1-yl}-ureido)-benzamide]
IC50 [1]: < 1 nM | IC50 [2]: < 1 nM | IC50 [3]: < 0.3 nM

CNC(=O)c1cc(NC(=O)N[C@H]2CC[C@@H](Oc3ccc4nnc([C@@H]5CCCN5C)n4c3)c3ccccc32)cc(C(C)(C)C)c1 [Example 54, 3-tert-Butyl-N-methyl-5-(3-{(1S,4R)-4-[3-((S)-1-methyl-pyrrolidin-2-yl)-[1,2,4]triazolo[4,3-a]pyridin-6-yloxy]-1,2,3,4-tetrahydro-naphthalen-1-yl}-ureido)-benzamide]
IC50 [1]: < 1 nM | IC50 [2]: 1 to 5 nM | IC50 [3]: > 1 nM

CNC(=O)c1cc(NC(=O)N[C@H]2CC[C@@H](Oc3ccc4nnc([C@]5(C)CCCN5C)n4c3)c3ccccc32)cc(C(C)(C)C)c1 [Example 55, 3-tert-Butyl-5-(3-{(1S,4R)-4-[3-((S)-1,2-dimethyl-pyrrolidin-2-yl)-[1,2,4]triazolo[4,3-a]pyridin-6-yloxy]-1,2,3,4-tetrahydro-naphthalen-1-yl}-ureido)-N-methyl-benzamide]
IC50 [1]: < 1 nM | IC50 [2]: < 1 nM | IC50 [3]: < 0.3 nM

Cc1c(NC(=O)N[C@H]2CC[C@@H](Oc3ccc4nnc([C@]5(C)CCCN5C)n4c3)c3ccccc32)cc(C(C)(C)C)cc1NS(C)(=O)=O [Example 56, N-[5-tert-Butyl-3-(3-{(1S,4R)-4-[3-((S)-1,2-dimethyl-pyrrolidin-2-yl)-[1,2,4]triazolo[4,3-a]pyridin-6-yloxy]-1,2,3,4-tetrahydro-naphthalen-1-yl}-ureido)-2-methyl-phenyl]-methanesulfonamide]
IC50 [1]: < 1 nM | IC50 [2]: < 1 nM | IC50 [3]: < 0.3 nM

Cc1c(NC(=O)N[C@H]2CC[C@@H](Oc3ccc4nnc([C@@H]5CCCN5C)n4c3)c3ccccc32)cc(C(C)(C)C)cc1NS(C)(=O)=O [Example 57, N-[5-tert-Butyl-2-methyl-3-(3-{(1S,4R)-4-[3-((S)-1-methyl-pyrrolidin-2-yl)-[1,2,4]triazolo[4,3,a]pyridin-6-yloxy]-1,2,3,4-tetrahydro-naphthalen-1-yl}-ureido)-phenyl]-methanesulfonamide]
IC50 [1]: < 1 nM | IC50 [2]: 1 to 5 nM | IC50 [3]: > 1 nM

CN1CCC[C@H]1c1nnc2ccc(O[C@@H]3CC[C@H](NC(=O)Nc4cc(N5CCOCC5)cc(C(C)(C)C)c4)c4ccccc43)cn12 [Example 58, 1-(3-tert-Butyl-5-morpholin-4-yl-phenyl)-3-{(1S,4R)-4-[3-((S)-1-methyl-pyrrolidin-2-yl)-[1,2,4]triazolo[4,3-a]pyridin-6-yloxy]-1,2,3,4-tetrahydro-naphthalen-1-yl}-urea]
IC50 [1]: 1 to 10 nM | IC50 [2]: > 5 nM | IC50 [3]: 0.3 to 1 nM
